# Test results reported in article PMC9951290, “Comprehensive Structure–Activity Relationship Studies of Cepafungin Enabled by Biocatalytic C–H Oxidations” (ACS Central Science, 2023).
# Key:
# [1] = system: proteasome subunits β2/2i, β5/5i, β1i, β1; details: in-gel labeling, cited from earlier work
# RPMI 8226 cells = details: ∼3700 proteins quantified, 19 in common; cited from earlier work
# proteasome subunit β5 = molecular target: T1, proteasome subunit β5 (Homo sapiens, UniProt P28074); assay: In situ β5 proteasome activity assay (Suc-LLVY-AMC) in RPMI 8226 cells; assay type: cell-based; details: RPMI 8226 cells
# T1 construct: Following incubation of the compounds in cell culture for 6 h, cells were lysed; endogenous in cells; host or cells: RPMI 8226 (human multiple myeloma)
# Description: A preliminary series of analogues, including the natural product glidobactin A (2), were synthesized by largely the same route (Scheme 2B, Figure 2).[36] Desoxycepafungin (38) was synthesized from Boc-Lys(Boc)-OH by peptide couplings/macrocyclization to assess the role of the macrocycle hydroxylation in 1 toward proteasome inhibition. The saturated cepafungin analogue 39 was designed to address the possible role of rigidity in the tail fragment induced by the diene seen in many natural cepafungins and glidobactins. An analogue bearing unsaturation at its macrocyclic lysine was envisioned to provide a head-to-head comparison between the cepafungin and syringolin macrocyclic core. […] Proteasome subunit β5 IC50 values were determined in situ in RPMI 8226 cells. In close agreement with prior measurement of β5 IC50 for natural 1 and 2 in purified yeast proteasome,[12] in our hands the additional branching methyl in 1 indeed leads to ca. 5-fold improved IC50 compared to 2 in RPMI 8226 cells. […] Likewise, saturation of the fatty acid fragment in 39 causes ca. 14-fold decrease in β5 inhibition. This preliminary series of analogues highlighted that the macrocyclic hydroxylation, fatty acid unsaturation, and terminal lipid functionality are critical for potent proteasome inhibitory activity.
# Cellular assays were performed on human multiple myeloma RPMI 8226 cells (Figure 4). First, relative inhibition of proteasome subunits β5 and β2 for all analogues and the natural product was measured at 30 nM compound concentration. Following incubation of the compounds in cell culture for 6 h, cells were lysed, and fluorogenic subunit-specific peptide substrates Suc-LLVY-AMC (β5) or Ac-RLR-AMC (β2) were incubated with the lysates; fluorescence readings provided relative proteasome activity levels in comparison with DMSO (Figure 4A). Next, cytotoxicity screening was performed at 30 and 100 nM concentrations for sufficient coverage of dynamic range (Figure 4B). […] Therefore, the improved cytotoxicity of phenyl cepafungin 50 likely results from a more pronounced loss of β5 function in RPMI 8226 cells. This drastic increase in proteasome inhibition may be due to π-stacking of the lipid tail phenyl ring with the β6 subunit residues Tyr106 and/or Tyr5. The β2 subunit-bound natural product has residues Tyr102 and Phe103 on the adjacent β3 subunit oriented further away from the terminal lipid methyl groups, and presumably would not facilitate π-stacking to the extent possible at the adjacent β6 subunit (see Figure 3 and Figure S4). […] These combined modifications were made in hopes that the effects of both substitutions would be additive. […] The presence of a Thr residue next to the cepafungin macrocycle appears to be favored over the ethyl side chain of desoxy-Thr analogue 44 as indicated by cytotoxicity and hydrogen-bonding seen in the cepafungin-bound crystal structure (Figures 3 and 4B). […]
# Mammalian cell culture and lysate preparation
# Mammalian cells were maintained in RPMI-1640 media. All media were supplemented with 10% fetal bovine serum (FBS, Life Technologies Cat# 10437028), non-essential amino acids (Sigma-Aldrich Cat# M7145) and penicillin/streptomycin (Sigma-Aldrich Cat# P4333). Cells were grown at 37 °C under 5% CO2 atmosphere. […] Cells were lysed by needle sonication to obtain cell lysates and protein concentration was determined using the […]
# (§1) fluorescence was read at A360ex/A460em. […]
# proteasome subunit β2 = molecular target: T2, proteasome subunit β2 (Homo sapiens, UniProt Q99436); assay: In situ β2 proteasome activity assay (Ac-RLR-AMC) in RPMI 8226 cells; assay type: cell-based; details: 6 h, n = 3, Figure 4D
# T2 sequence (Q99436 44-277): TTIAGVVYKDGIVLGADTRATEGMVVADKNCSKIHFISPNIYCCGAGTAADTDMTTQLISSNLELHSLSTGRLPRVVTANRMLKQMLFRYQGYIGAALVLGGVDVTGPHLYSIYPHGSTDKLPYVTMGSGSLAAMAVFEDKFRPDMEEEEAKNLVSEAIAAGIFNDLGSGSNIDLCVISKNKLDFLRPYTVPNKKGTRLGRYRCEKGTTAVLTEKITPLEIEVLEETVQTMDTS
# Experimental: Cellular assays were performed on human multiple myeloma RPMI 8226 cells (Figure 4). First, relative inhibition of proteasome subunits β5 and β2 for all analogues and the natural product was measured at 30 nM compound concentration. Following incubation of the compounds in cell culture for 6 h, cells were lysed, and fluorogenic subunit-specific peptide substrates Suc-LLVY-AMC (β5) or Ac-RLR-AMC (β2) were incubated with the lysates; fluorescence readings provided relative proteasome activity levels in comparison with DMSO (Figure 4A). Next, cytotoxicity screening was performed at 30 and 100 nM concentrations for sufficient coverage of dynamic range (Figure 4B). […] Therefore, the improved cytotoxicity of phenyl cepafungin 50 likely results from a more pronounced loss of β5 function in RPMI 8226 cells. This drastic increase in proteasome inhibition may be due to π-stacking of the lipid tail phenyl ring with the β6 subunit residues Tyr106 and/or Tyr5. […]
# Mammalian cells were maintained in RPMI-1640 media. […] Cells were lysed by needle sonication to obtain cell lysates and protein concentration was determined using the […]
# as §1
# in DMSO) or DMSO and cultured for 48 hours. Toxicity was determined using the WST-1 assay (Roche) according to the protocol of the manufacturer. […]
structure (smiles),measurement,setting,value
"CC(C)CCCCCC=CC=CC(=O)NC(C(=O)NC1CC(O)CCNC(=O)C=CC(C)NC1=O)C(C)O (stereo not shown) [compound 1, cepafungin I]",engagement of β1,"[1]; RPMI 8226, even at high concentrations",very little engagement
same,"competition for subunits β2/2i, β5/5i and β1i",[1]; RPMI 8226,low-nanomolar concentrations
same,number of proteins upregulated compared to DMSO control,RPMI 8226 cells,88 proteins
same,fold improved β5 IC50 of 1 compared to 2,proteasome subunit β5,ca. 5 fold
same,fold improved β5 inhibition of 1 compared to 38,proteasome subunit β5,ca. 11 fold
same,IC50,"proteasome subunit β5; 6 h, Suc-LLVY-AMC, n = 3, Figure 4D",28 nM
same,IC50,proteasome subunit β2,43 nM
